Active and inactive are the calls of the source. No cut-off for these calls is given here.

In this assay the target is SUMO E1/E2 (Homo sapiens) (UniProt Q9UBE0+Q9UBT2+P63279). Description: Inhibition of purified SUMO E1/E2 (unknown origin)-mediated conjugation of His6-SUMO-1 to fluorescent peptide FL-AR at 30 uM after 90 mins by microfluidic electrophoretic mobility shift assay. The format is protein-complex assay.
`O=c1cc(-c2ccc(O)c(O)c2O)oc2ccccc12`: the inhibition result was “Active”.

With `O=c1cc(-c2ccccc2O)oc2c(O)c(O)ccc12`, the inhibition entry is “inactive”.

With `O=C(/C=C(\O)c1ccccc1O)c1ccc(O)c(O)c1O`, the inhibition entry is “Active”.

Source of the values: ChEMBL document CHEMBL3112451, “Synthesis of 2',3',4'-trihydroxyflavone (2-D08), an inhibitor of protein sumoylation” (Bioorg Med Chem Lett, 2014).
